# Results from patent publication US5225607A, “Insecticidal ethers” (Imperial Chemical Industries PLC, priority 1985, dated 1993).
# Key:
# Type in all cases: in vivo
# [1] = Insecticidal evaluation of fraction 1 and fraction 3 (resolved isomers); settings: fraction 1 (92.9% isomer A) against fraction 3
# Protocol: (±)-1,1,1-trifluoro-2-(4-ethoxyphenyl)-3-(3-phenoxybenzyloxy)propane was resolved by high pressure liquid chromatography, using a Pirkle type 1A column (25 cm×4.9 mm) at -20° C., and n-hexane containing 1% by volume chloroform as eluent, at a flow rate of 0.7 cm^3 /minute. Elution was monitored using a UV detector at […]. Two isomers were detected:isomer A (retention time ca. 51 minutes) and isomer B (retention time ca. 54.6 minutes). A total of three fractions were collected.
# [2] = test system: Myzus persicae; assay: Insecticidal test, Myzus persicae (aphids), contact; settings: 72 h, Chinese Cabbage leaf, 3 days, read-out: grading of mortality, MP
# In short: (§1)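 Acetone solution diluted in water + 0.01% wetting agent; 500/250/100 ppm. Treat pests and/or host plant/food medium. Read mortality/knockdown day 1–3. Grades: A 80–100% (S. exigua 70–100%), B 50–79% (50–69%), C <50%.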
# [3] = test system: Musca domestica; assay: Knockdown test, Musca domestica (houseflies - adults); settings: cotton wool/sugar, 4 hours, read-out: grading of knockdown, MD/KD
# In short: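 Adult houseflies were exposed to the compound as aqueous acetone preparations with 0.01% Lissapol NX wetting agent, at 500, 250 or 100 ppm. Knockdown was graded A (80–100%), B (50–79%) or C (<50%).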
# [4] = test system: Tetranychus urticae; assay: Insecticidal/acaricidal test, Tetranychus urticae (spider mites - adult), contact; settings: 72 h, French bean leaf, 3 days, read-out: grading of mortality, TU
# In short: as §1
# [5] = test system: Blattella germanica; assay: Insecticidal test, Blattella germanica (cockroach nymphs), residual; settings: 72 h, plastic pot, 3 days, read-out: grading of mortality, BG
# In short: as §1
# [6] = test system: Heliothis virescens; assay: whole plant or invertebrate; settings: in Gossypium hirsutum, 72 h, read-out: grading of mortality, HV
# In short: as §1
# [7] = test system: Diabrotica balteata; assay: Insecticidal test, Diabrotica balteata (rootworm larvae), residual; settings: 72 h, filter paper/maize seed, 3 days, read-out: grading of mortality, DB
# In short: as §1
# [8] = test system: Musca domestica; assay: Insecticidal test, Musca domestica (houseflies - adults), contact; settings: 24 h, cotton wool/sugar, 1 day, read-out: grading of mortality, MD
# In short: as §1
# [9] = test system: Nilaparvata lugens; assay: Insecticidal test, Nilaparvata lugens (brown planthopper), contact; settings: 72 h, Cabbage leaf, 3 days, read-out: grading of mortality, NL
# In short: as §1
# [10] = test system: Spodoptera exigua; assay: Insecticidal test, Spodoptera exigua (lesser armyworm), residual; settings: 72 h, cotton leaf, 3 days, read-out: grading of mortality, SE
# In short: as §1
Compound,mortality at 500 ppm [2] [%],pest or weed control at 500 ppm [3] [%],mortality at 500 ppm [4] [%],mortality at 500 ppm [5] [%],mortality at 500 ppm [6] [%],mortality at 500 ppm [7] [%],mortality at 500 ppm [8] [%],mortality at 500 ppm [9] [%],mortality at 500 ppm [10] [%],further results
"CCOc1ccc(C(COCc2cccc(Oc3ccccc3)c2)C(F)(F)F)cc1 (single isomer, unassigned) [isomer A, (+)-1,1,1-trifluoro-2-(4-ethoxyphenyl)-3-(3-p-henoxybenzyloxy)-propane]",,,,,,,,,,insecticidal activity of isomer A relative to isomer B [1]: substantially more active than isomer B
"FC(F)(F)C(Cl)(COCc1cccc(Oc2ccccc2)c1)c1ccc2c(c1)OCO2 (stereo not shown) [Compound 64, 1,1,1-Trifluoro-2-chloro-2-(3,4-methylenedioxyphenyl)-3-(3-phenoxybenzyloxy)propane]",< 50,50 to 79,< 50,< 50,80 to 100,< 50,50 to 79,< 50,< 50,
"FC(F)(F)C(Cl)(COCc1cccc(Oc2ccc(Cl)cc2)c1)c1ccc2c(c1)OCO2 (stereo not shown) [Compound 65, 1,1,1-Trifluoro-2-chloro-2-(3,4-methylenedioxyphenyl)-3-(3-(4-chlorophenoxy)-benzyloxy)propane]",< 50,< 50,< 50,80 to 100,80 to 100,< 50,< 50,< 50,50 to 69,
"Fc1ccc(COCC(F)(c2ccc(Br)cc2)C(F)(F)F)cc1Oc1ccccc1 (stereo not shown) [Compound 83, 1,1,1,2-Tetrafluoro-2-(4-bromophenyl)-3-(3-phenoxy-4-fluorobenzyloxy)propane]",80 to 100,80 to 100,< 50,80 to 100,80 to 100,80 to 100,80 to 100,80 to 100,70 to 100,
"FC(F)(F)c1ccc(C(F)(COCc2cccc(Oc3ccccc3)c2)C(F)(F)F)cc1 (stereo not shown) [Compound 84, 1,1,1,2-Tetrafluoro-2-(4-trifluoromethylphenyl)-3-(3-phenoxybenzyloxy)propane]",80 to 100,80 to 100,80 to 100,80 to 100,80 to 100,80 to 100,80 to 100,80 to 100,70 to 100,
"Cc1ccc(C(O)(COCc2cccc(Oc3ccccc3)c2)C(F)(F)F)cc1 (stereo not shown) [Compound 120, 1,1,1-Trifluoro-2-(4-methylphenyl)-3-(3-phenoxybenzyloxy)propan-2-ol]",< 50,80 to 100,< 50,< 50,< 50,< 50,< 50,< 50,< 50,
"OC(COCc1ccc(F)c(Oc2ccccc2)c1)(c1ccc(Br)cc1)C(F)(F)F (stereo not shown) [Compound 127, 1,1,1-Trifluoro-2-(4-bromophenyl)-3-(3-phenoxy-4-fluorobenzyloxy)propan-2-ol]",< 50,80 to 100,< 50,< 50,< 50,80 to 100,50 to 79,< 50,50 to 69,
"OC(COCc1cccc(Oc2ccccc2)c1)(c1ccc2c(c1)OCO2)C(F)(F)F (stereo not shown) [Compound 128, 1,1,1-trifluoro-2-(3,4-methylenedioxyphenyl)-3-(3-phenoxybenzyloxy)propan-2-ol]",< 50,< 50,< 50,< 50,80 to 100,50 to 79,50 to 79,< 50,70 to 100,
"OC(COCc1cccc(Oc2ccc(Cl)cc2)c1)(c1ccc2c(c1)OCO2)C(F)(F)F (stereo not shown) [Compound 129, 1,1,1-Trifluoro-2-(3,4-methylenedioxyphenyl)-3-(3-(4-chlorophenoxy)benzyloxy)propan-2-ol]",50 to 79,80 to 100,< 50,< 50,50 to 79,< 50,80 to 100,80 to 100,70 to 100,
"OC(COCc1cccc(Oc2ccc(Cl)cc2)c1)(c1ccc(OC(F)(F)F)cc1)C(F)(F)F (stereo not shown) [Compound 135, 1,1,1-Trifluoro-2-(4-trifluoromethoxyphenyl)-3-(3-(4-chlorophenoxy)benzyloxy)propan-2-ol]",,,,,,,,,,mortality at 250 ppm ([2]; 250 ppm): < 50%; pest or weed control at 250 ppm ([3]; 250 ppm): 80 to 100%; mortality at 250 ppm ([4]; 250 ppm): < 50%; mortality at 250 ppm ([5]; 250 ppm): < 50%; mortality at 250 ppm [6]: 80 to 100%; mortality at 250 ppm ([7]; 250 ppm): < 50%; mortality at 250 ppm ([8]; 250 ppm): < 50%; mortality at 250 ppm ([9]; 250 ppm): < 50%; mortality at 250 ppm ([10]; 250 ppm): 70 to 100%
"OC(COCc1cccc(Oc2ccccc2)n1)(c1ccc(OC(F)(F)F)cc1)C(F)(F)F (stereo not shown) [Compound 136, 1,1,1-Trifluoro-2-(4-trifluoromethoxyphenyl)-3-(6-phenoxy-2-pyridylmethyloxy)propan-2-ol]",< 50,80 to 100,< 50,< 50,50 to 79,80 to 100,80 to 100,< 50,< 50,
"OC(COCc1cccc(Oc2ccccc2)c1)(c1ccc(C(F)(F)F)cc1)C(F)(F)F (stereo not shown) [Compound 137, 1,1,1-Trifluoro-2-(4-trifluoromethylphenyl)-3-(3-phenoxybenzyloxy)propan-2-ol]",80 to 100,< 50,< 50,< 50,< 50,< 50,< 50,< 50,70 to 100,
"Fc1ccc(COC=C(c2ccc(OC(F)(F)F)cc2)C(F)(F)F)cc1Oc1ccccc1 [Compound 462, 1,1,1-trifluoro-2-(4-trifluoromethoxyphenyl)-3-(3-phenoxy-4-fluorobenzyloxy)prop-2-ene]",,,,,,,,,,mortality at 100 ppm ([2]; 100 ppm): < 50%; pest or weed control at 100 ppm ([3]; 100 ppm): 80 to 100%; mortality at 100 ppm ([4]; 100 ppm): < 50%; mortality at 100 ppm ([5]; 100 ppm): 80 to 100%; mortality at 100 ppm [6]: 80 to 100%; mortality at 100 ppm ([7]; 100 ppm): 50 to 79%; mortality at 100 ppm ([8]; 100 ppm): 80 to 100%; mortality at 100 ppm ([9]; 100 ppm): < 50%; mortality at 100 ppm ([10]; 100 ppm): 70 to 100%
